Experimental data published in patent publication US12696899B2, “Microbiocidal 2-acylamino-thiazole-4-carboxamide derivatives” (SYNGENTA CROP PROTECTION AG, priority 2018, dated 2026).
Like-named read-outs stand apart in the source and are kept apart here.

Assays:
[1] = Photostability, thin-film irradiation in Atlas Suntest xenon lamp; type: physicochemical; conditions: thin film on glass, Suntest 750 W/m2; time for first 50% loss
Procedure: Photostability tests were carried out by irradiation of thin-film deposits of compounds and formulations on glass surfaces, using a filtered xenon lamp system (Atlas Suntest) which reproduces the spectrum and intensity of sunlight. The spectral output power of the Suntest was set to 750 W/m2, which is the typical daily maximum irradiance level at noon (UK, midsummer).
Test compounds were typically dissolved in HPLC grade methanol to give 1 g/L stock solutions. Alternatively, formulated compounds were suspended in water at the same concentration. 2 μL droplets of test solutions were spotted onto microscope cover slips in a 3D printed holder, allowed to dry then irradiated in the Suntest for varying times. Cover slips were then removed from the Suntest and placed in 4 dram vials; 1 mL of wash solvent (typically 30:70 acetonitrile: 0.2% aqueous formic acid) was added, and the vials shaken to extract compounds into solution. Solutions were analysed by reverse phase HPLC, typically using a Waters UPLC system with Photodiode Array (PDA) and Waters columns (BEH C18, 100×2.1 mm×1.7 μm) using mixed aqueous:acetonitrile mobile phase, acidifed with 0.2% formic acid. Peak detection was at the optimum wavelength for each candidate compound and PDA peak areas were used for quantification. Plots of % loss versus time were used to estimate T50 values, being the time taken for first 50% loss of test compound.

physchem = conditions: pH 7
[2] = pH 7.2
[3] = Octanol-water partition coefficient (Log P) by HPLC on octanol-coated mini-columns; conditions: pH 7
[4] = Solubility in aqueous buffer (10 mM mixed phosphate, pH 7.20)
[5] = system: Gibberella zeae (Fusarium graminearum); type: in vivo; conditions: 200 ppm; wheat spikelet preventative; compared to untreated control
Pyrenophora teres = experiment: Example B15 Pyrenophora teres/barley/leaf disc preventative (net blotch); type: in vivo; conditions: foliar, barley leaf disc preventative, compared to untreated control
[6] = system: Magnaporthe grisea (Pyricularia oryzae); experiment: whole plant or invertebrate; type: in vivo; conditions: foliar, read-out: control of Magnaporthe grisea
Fusarium culmorum = type: in vivo; conditions: 200 ppm; wheat spikelet preventative; compared to untreated control

Compound	Photostability T50 [1]	chromatographic logP (physchem)	Solubility in water [2]	other results
Cc1sc(N(C=O)c2cc(F)nc(F)c2)nc1C(=O)NC1CCC1(C)C (stereo not shown) [I.b.595, 2-[(2,6-difluoro-4-pyridyl)-formyl-amino]-N-(2,2-dimethylcyclobutyl)-5-methyl-thiazole-4-carboxamide]	2.8 h	3.61	2.5 ppm	
Cc1sc(N(C(=O)c2ccco2)c2cc(F)nc(F)c2)nc1C(=O)NC1CCC1(C)C (stereo not shown) [I.b.614, 2-[(2,6-difluoro-4-pyridyl)-(furan-2-carbonyl)amino]-N-(2,2-dimethylcyclobutyl)-5-methyl-thiazole-4-carboxamide]	14 h	4.61	0.054 ppm	
Cc1sc(Nc2cc(F)nc(F)c2)nc1C(=O)NC1CCC1(C)C (stereo not shown) [Compound E-0, 2-[(2,6-difluoro-4-pyridyl)amino]-N-(2,2-dimethylcyclobutyl)-5-methyl-thiazole-4-carboxamide, reference compound]	3.5 h		0.70 ppm	
Cc1sc(N(C(=O)Oc2ccccc2)c2cc(F)nc(F)c2)nc1C(=O)NC1CCC1(C)C (stereo not shown) [I.b.616, phenyl N-(2,6-difluoro-4-pyridyl)-N-[4-[(2,2-dimethylcyclobutyl)carbamoyl]-5-methyl-thiazol-2-yl]carbamate]	18 h			chromatographic logP [3]: 5.34; Solubility in water [4]: 0.10 ppm; Solubility in heptane (Solubility in heptane): 673 ppm
COC(=O)CC(=O)N(c1cc(F)nc(F)c1)c1nc(C(=O)NC2CCC2(C)C)c(C)s1 (stereo not shown) [I.b.607, methyl 3-[(2,6-difluoro-4-pyridyl)-[4-[(2,2-dimethylcyclobutyl)carbamoyl]-5-methyl-thiazol-2-yl]amino]-3-oxo-propanoate]	4.4 h	3.59	12 ppm	control of Gibberella zeae [5]: at least 80%
CC(=O)N(c1cc(F)nc(F)c1)c1nc(C(=O)NC2CCC2(C)C)c(C)s1 (stereo not shown) [I.b.596, 2-[acetyl-(2,6-difluoro-4-pyridyl)amino]-N-(2,2-dimethylcyclobutyl)-5-methyl-thiazole-4-carboxamide]	5.5 h	3.8	3.7 ppm	
CCOC(=O)C(=O)N(c1cc(F)nc(F)c1)c1nc(C(=O)NC2CCC2(C)C)c(C)s1 (stereo not shown) [I.b.612, ethyl 2-[(2,6-difluoro-4-pyridyl)-[4-[(2,2-dimethylcyclobutyl)carbamoyl]-5-methyl-thiazol-2-yl]amino]-2-oxo-acetate]	5.5 h	4.34		
COC(=O)N(c1cc(F)nc(F)c1)c1nc(C(=O)NC2CCC2(C)C)c(C)s1 (stereo not shown) [I.b.598, methyl N-(2,6-difluoro-4-pyridyl)-N-[4-[(2,2-dimethylcyclobutyl)carbamoyl]-5-methyl-thiazol-2-yl]carbamate]	6.2 h			chromatographic logP [3]: 4.21; Solubility in water [4]: 1.4 ppm; Solubility in heptane (Solubility in heptane): 1155 ppm
COCC(=O)N(c1cc(F)nc(F)c1)c1nc(C(=O)NC2CCC23CCCC3)c(C)s1 (stereo not shown) [I.c.600, 2-[(2,6-difluoro-4-pyridyl)-(2-methoxyacetyl)amino]-5-methyl-N-spiro[3.4]octan-3-yl-thiazole-4-carboxamide]				pest or weed control at 200 ppm (Pyrenophora teres): ≥ 80%; pest or weed control at 200 ppm [6]: ≥ 80%
COCC(=O)N(c1cc(F)nc(F)c1)c1nc(C(=O)NC2CCC2(C)C)c(C)s1 (stereo not shown) [I.b.600, 2-[(2,6-difluoro-4-pyridyl)-(2-methoxyacetyl)amino]-N-(2,2-dimethylcyclobutyl)-5-methyl-thiazole-4-carboxamide]	2.8 h	3.35	18 ppm	control of Fusarium culmorum (Fusarium culmorum): at least 80%
CCOC(=O)N(c1cc(F)nc(F)c1)c1nc(C(=O)NC2CCC2(C)C)c(C)s1 (stereo not shown) [I.b.599, ethyl N-(2,6-difluoro-4-pyridyl)-N-[4-[(2,2-dimethylcyclobutyl)carbamoyl]-5-methyl-thiazol-2-yl]carbamate]	11 h	4.58	1.0 ppm	
